The METLIN SMRT retention time set (Domingo-Almenara et al. 2019)

Test: gradient 5% acetonitrile 3 min, to 50% in 2 min, to 85% in 15 min, held 3 min, 100 µL/min
Conditions: column: Zorbax Extend-C18 2.1 x 50 mm; eluents: water / acetonitrile, 0.1% formic acid
How it was run: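 The mobile phases were water and acetonitrile, each with 0.1% formic acid, pumped at 100 μL/min through a Zorbax Extend-C18 column (2.1 × 50 mm, 1.8 μm). Pure standards were injected as mixtures of ~100 molecules and detected by a quadrupole time-of-flight mass spectrometer in positive and negative ionization mode. Retention time came from computationally picked adduct peaks, each inspected by hand.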

Row | Compound | RP-LC retention time
1 | Cc1sc(-c2cc(C(F)(F)F)on2)cc1S(=O)(=O)Nc1ccc(Br)cc1F | 1230 s
2 | Cc1cnc(C(=O)NC2C[C@H]3CC[C@@H](C2)N3C(=O)c2ccc(C)s2)cn1 (stereo partly drawn) | 683 s
3 | CCCNc1cc(N2CCC(CCC(=O)NCC(C)C)CC2)ncn1 | 642 s
4 | CC1CCN(C(=O)C2c3ccccc3CCN2CC(=O)NCC2CCCCC2)CC1 (stereo not drawn) | 1070 s
5 | c1ccc(-c2nc3ccccn3c2Nc2ccc3c(c2)OCCO3)cc1 | 665 s
6 | O=C(Cn1cccc1-c1nnc(C2CCC2)o1)NCc1cccc(Br)c1 | 937 s
7 | CCOc1ccccc1C(=O)Nc1cccn2c(C3CCC3)nnc12 | 953 s
8 | Nc1nc(SCC(=O)NCC2CCCO2)n[nH]1 (stereo not drawn) | 469 s
9 | Cc1cc(C(F)(F)F)nn1CC(=O)N1CCC(c2noc(-c3ccccn3)n2)C1 (stereo not drawn) | 769 s
10 | CCS(=O)(=O)N1CC(=O)N(c2cccc(Cl)c2C)C(C)(C(=O)NCc2ccccc2)C1 (stereo not drawn) | 906 s
11 | COc1ccc(S(=O)(=O)NCc2cccnc2-c2cccc(C)c2)cc1 | 695 s
12 | CCOC(=O)C1=C(N)Oc2c(c(=O)[nH]c3ccc(C)cc23)C1c1ccc(OC)cc1 (stereo not drawn) | 881 s
13 | O=C(NCc1cccs1)N1CCN(c2nc3c(F)cc(F)cc3s2)CC1 | 849 s
14 | CCN(CC)CCCNC(=O)CCc1c(-c2ccc(Br)cc2)nc2ccccn12 | 559 s
15 | CCCN1CCN(C(=O)Cn2c3ccccc3c3cnn(C)c(=O)c32)CC1 | 590 s
16 | CCOC(=O)N1CCN(c2ncc(S(=O)(=O)c3ccccc3)c(N)n2)CC1 | 821 s
17 | C=CCn1c(=O)c2ccccc2n(Cc2nc(-c3ccccc3)no2)c1=O | 1000 s
18 | O=S(=O)(Cc1ccccc1)N1CC(c2nc(Cc3ccccc3)no2)C1 | 1010 s
19 | CCCCNC(=O)C1CCN(C(=O)Nc2ccc(NC(=O)NC3CCCCC3)cc2)CC1 | 732 s
20 | CCCn1cc(CCNC(=O)Nc2ccc(Cl)cc2)c2cccnc21 | 812 s
21 | CC1CN(Cc2nc3c(c(=O)n(C)c(=O)n3C)n2CC(=O)c2ccccc2)CC(C)O1 (stereo not drawn) | 624 s
22 | Cc1cc2c(c(=O)n(-c3ccccc3)c(=O)n2CC(=O)Nc2cccc(Br)c2)n1C | 836 s
23 | COc1ccc(Cl)cc1S(=O)(=O)N1CCCC(C(=O)Nc2ccc(C)c(C)c2)C1 (stereo not drawn) | 1080 s

Row | Compound | RP-LC retention time
24 | Cc1ccc(-c2nc3cnccn3c2NCCC(=O)N(C)C)cc1 | 622 s
25 | Cc1noc2ncnc(N3CCN(c4ccccn4)CC3)c12 | 562 s
26 | COc1cccc(Nc2c(-c3ccccc3)nc3cnccn23)c1 | 828 s
27 | O=c1ccc(-c2ccc3c(c2)OCO3)nn1CCc1nc(-c2cccc(Br)c2)no1 | 1060 s
28 | Nc1nc(Nc2ccccc2)n[nH]1 | 637 s
29 | O=C1C(O)=C(S(=O)(=O)c2ccc(Cl)cc2)C(c2ccc(F)cc2)N1Cc1ccco1 (stereo not drawn) | 972 s
30 | CCCN(CC1CCOC1)S(=O)(=O)c1cccc(OC)c1 (stereo not drawn) | 881 s
31 | CN1CCCc2cc(C(=O)NCc3ccccc3Cl)sc21 | 964 s
32 | CCOc1ccc(NC(=O)Nc2nccn(-c3ccc(OC)cc3)c2=O)cc1 | 935 s
33 | CCc1ccc(-c2nc(-c3ccc4nnn(C)c4c3)no2)cc1 | 1150 s
34 | COC(=O)C(=Cc1ccccc1[N+](=O)[O-])C(=O)OC | 883 s
35 | COc1ccccc1NC(=O)C1CCN(S(=O)(=O)c2ccc3[nH]c(=O)ccc3c2)CC1 | 734 s
36 | Cc1ccc(C)c(CS(=O)(=O)NCCc2cn(CC(C)C)c3ncccc23)c1 | 1070 s
37 | CC1CCCCN1C(=O)c1ccc2c(c1)Sc1ncccc1C(=O)N2C(C)C (stereo not drawn) | 810 s
38 | O=c1ccc(-c2cccc(Br)c2)nn1Cc1nc(-c2cccs2)no1 | 1020 s
39 | CC(NC(=O)c1ccco1)c1nc2ccccc2n1CC(=O)N(C(C)C)C(C)C (stereo not drawn) | 691 s
40 | Cc1c(-c2nsc(Nc3ccccc3)n2)nnn1-c1cccc(Cl)c1 | 1070 s
41 | O=C1CS(=O)C2(CCNCC2)N1Cc1cccc(F)c1 (stereo not drawn) | 566 s
42 | Cc1cccn2cc(-c3cccc(S(=O)(=O)N4CCCCC4)c3)nc12 | 700 s
43 | CCOc1ccc(C(=O)NC2CCN(c3cc(-c4cccs4)[nH]n3)C2)cc1OCC (stereo not drawn) | 755 s
44 | O=C(Nc1cc(F)ccc1F)N1CCc2nc(-c3ccc(F)cc3)ncc2C1 | 985 s
45 | CCc1nnc2ccc(NC3CC3)nn12 | 657 s
46 | O=C(NC1CC1)c1ccc2c(c1)CCCN2S(=O)(=O)c1ccccc1 | 804 s

Row | Compound | RP-LC retention time
47 | Cc1nc(NCc2ccco2)sc1C(=O)Nc1cccc(C(F)(F)F)c1 | 887 s
48 | CCOC(=O)c1cc(S(=O)(=O)N2CCCC2C(=O)NCc2cccnc2)cn1C (stereo not drawn) | 598 s
49 | Cc1nn2c(S(=O)(=O)N3CCSCC3)c(C(C)C)nc2s1 | 862 s
50 | CCc1nc2cc(N3CCC(C(=O)NCCN4CCCC4)CC3)cnc2nc1CC | 600 s
51 | CC(=O)c1ccc(NC(=O)NC2CCN(c3nc4ccccc4n(C)c3=O)CC2)cc1 | 748 s
52 | CCOc1ccccc1C(=O)N1CCC2(CC1)NCc1ccccc1-n1ccnc12 | 572 s
53 | CCn1c(=O)c(C(=O)Nc2cccc(SC)c2)c(O)c2sccc21 | 1290 s
54 | CC1CCCCN1CCNC(=O)Cn1c2ccccc2c2cnn(C)c(=O)c21 (stereo not drawn) | 620 s
55 | COc1cccc(NC(=O)Cn2c(=O)n(-c3ccc(F)cc3)c(=O)c3c2cc(C)n3C)c1 | 834 s
56 | O=C(O)CC1(CC(=O)Nc2nc(-c3cccc4ccccc34)cs2)CCCC1 | 1040 s
57 | Cc1ccc(CN2CCN(CC(=O)N3CCC4(CC3)OCCO4)C(=O)C2=O)cc1 | 653 s
58 | CCCNC(=O)CCc1c(-c2ccc(Br)cc2)nc2ccccn12 | 624 s
59 | Cc1cc(-c2nnc(NC(=O)c3ccc4c(c3)OCCO4)o2)c(C)o1 | 766 s
60 | Cc1c(F)cccc1NC(=O)NC1CCN(c2ccc(F)cc2)C1=O (stereo not drawn) | 866 s
61 | CCC(C)C(=O)N1CCCN(C2=NS(=O)(=O)C(c3ccccc3)=C2C)CC1 (stereo not drawn) | 777 s
62 | CCc1ccc(NC(=O)c2sc3nc(C)nc(N4CCN(c5ccccn5)CC4)c3c2C)cc1 | 779 s
63 | Cc1ccc(-c2noc(Cn3cnc4c(cnn4-c4ccc(Br)cc4)c3=O)n2)cc1 | 1250 s
64 | CCC(=O)NCc1nc2c(n1C)CN(C(=O)c1ccc(Br)cc1)CC2 | 605 s
65 | COc1ccc(-c2c(C)noc2NC(C)=O)cc1S(=O)(=O)Nc1ccc(F)cc1 | 736 s
66 | CCN1CCOc2ccc(NC(=O)c3ccc4c(c3)OCO4)cc2C1=O | 675 s
67 | CCOC(=O)Nc1ccccc1NC(=O)OCC | 717 s
68 | CC(C)CC(=O)NC(Cc1ccccc1)c1nnc(N2CCN(C)CC2)o1 (stereo not drawn) | 621 s
